Source: patent publication US20240376099A1, “COMPOUNDS AND COMPOSITIONS AS INHIBITORS OF ENDOSOMAL TOLL-LIKE RECEPTORS” (Novartis AG, priority 2016, published 2024)

Each compound was assayed against T1, TLR7 (Homo sapiens, UniProt Q9NYK1) (assay: huPBMC TLR7 Antagonist IFNα Assay). Details: human PBMCs stimulated with ssRNA40 10 μg/mL (DOTAP), 14-16 hrs; IFNα2b AlphaLISA read-out.
T1 construct: Fresh blood was collected from normal human donors; endogenous in cells; host or cells: human PBMCs from fresh donor blood
T1 sequence (Q9NYK1 27-1049): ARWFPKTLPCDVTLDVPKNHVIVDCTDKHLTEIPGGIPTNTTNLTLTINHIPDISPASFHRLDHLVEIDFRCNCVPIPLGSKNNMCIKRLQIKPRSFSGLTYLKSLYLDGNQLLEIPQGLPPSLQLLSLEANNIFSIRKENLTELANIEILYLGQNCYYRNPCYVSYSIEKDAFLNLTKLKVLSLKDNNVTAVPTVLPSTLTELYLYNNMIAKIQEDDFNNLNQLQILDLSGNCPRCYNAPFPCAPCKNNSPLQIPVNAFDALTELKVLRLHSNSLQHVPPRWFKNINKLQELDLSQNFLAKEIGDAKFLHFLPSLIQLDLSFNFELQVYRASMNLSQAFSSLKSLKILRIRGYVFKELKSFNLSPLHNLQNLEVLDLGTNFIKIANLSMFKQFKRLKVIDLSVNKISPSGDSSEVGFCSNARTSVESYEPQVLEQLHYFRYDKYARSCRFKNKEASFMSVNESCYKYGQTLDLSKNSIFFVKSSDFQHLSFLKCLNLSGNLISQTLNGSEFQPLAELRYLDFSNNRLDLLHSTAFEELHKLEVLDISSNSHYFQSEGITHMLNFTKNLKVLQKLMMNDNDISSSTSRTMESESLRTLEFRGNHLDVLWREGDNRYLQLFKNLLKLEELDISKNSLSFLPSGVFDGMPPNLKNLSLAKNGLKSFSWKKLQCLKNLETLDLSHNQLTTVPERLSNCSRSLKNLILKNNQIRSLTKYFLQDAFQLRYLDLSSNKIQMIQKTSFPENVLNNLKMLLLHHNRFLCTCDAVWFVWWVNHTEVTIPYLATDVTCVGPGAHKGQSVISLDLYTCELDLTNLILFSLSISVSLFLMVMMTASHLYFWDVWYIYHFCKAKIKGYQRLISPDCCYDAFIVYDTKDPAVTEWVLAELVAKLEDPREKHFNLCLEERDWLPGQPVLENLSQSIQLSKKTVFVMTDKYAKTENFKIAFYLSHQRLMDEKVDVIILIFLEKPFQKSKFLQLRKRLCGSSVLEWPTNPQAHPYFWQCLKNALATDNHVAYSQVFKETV
Assay type: cell-based
Summary of the method: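 Human PBMCs from fresh donor blood (150,000 cells/well) stimulated 14–16 h at 37 °C with DOTAP-complexed ssRNA40 (final 1 μg/ml for TLR8, 10 μg/mL for TLR7) or ODN2216 (final 0.3 μM, TLR9), 0.25% DMSO, ten-point 1/3 compound dilutions. Supernatant IL-6 read by HTRF (TLR8); IFNα by IFNα2b AlphaLISA (TLR7/TLR9).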

SMILES	IC50 [nM]
Cc1nc(N2CCc3c(c(C)nn3CC34CCC(NCC5(CO)COC5)(CC3)CC4)C2)c2c(n1)c(C)nn2C [compound 31, (3-(((4-((3-methyl-5-(1,3,5-trimethyl-1H-pyrazolo[4,3-d]pyrimidin-7-yl)-4,5,6,7-tetrahydro-1H-pyrazolo[4,3-c]pyridin-1-yl)methyl)bicyclo[2.2.2]octan-1-yl)amino)methyl)oxetan-3-yl)methanol]	13
Cc1nc(N2CCc3c(c(C)nn3CC34CCC(NC(=O)[C@@H]5COCCN5)(CC3)CC4)C2)c2c(n1)c(C)nn2C [compound 33, (S)-N-(4-((3-methyl-5-(1,3,5-trimethyl-1H-pyrazolo[4,3-d]pyrimidin-7-yl)-4,5,6,7-tetrahydro-1H-pyrazolo[4,3-c]pyridin-1-yl)methyl)bicyclo[2.2.2]octan-1-yl)morpholine-3-carboxamide]	55
Cc1nc(N2CCc3c(c(C)nn3CC34CCC(NC(=O)[C@@H]5CNCCO5)(CC3)CC4)C2)c2c(n1)c(C)nn2C [compound 34, (S)-N-(4-((3-methyl-5-(1,3,5-trimethyl-1H-pyrazolo[4,3-d]pyrimidin-7-yl)-4,5,6,7-tetrahydro-1H-pyrazolo[4,3-c]pyridin-1-yl)methyl)bicyclo[2.2.2]octan-1-yl)morpholine-2-carboxamide]	13
Cc1nc(N2CCc3c(c(C)nn3CC34CCC(NC(=O)[C@H]5CNCCO5)(CC3)CC4)C2)c2c(n1)c(C)nn2C [compound 36, (R)-N-(4-((3-methyl-5-(1,3,5-trimethyl-1H-pyrazolo[4,3-d]pyrimidin-7-yl)-4,5,6,7-tetrahydro-1H-pyrazolo[4,3-c]pyridin-1-yl)methyl)bicyclo[2.2.2]octan-1-yl)morpholine-2-carboxamide]	7
Cc1nc(N2CCc3c(c(C)nn3CC34CCC(N5CCOCC5)(CC3)CC4)C2)c2c(C)noc2n1 [compound 37, 3,6-dimethyl-4-(3-methyl-1-((4-morpholinobicyclo[2.2.2]octan-1-yl)methyl)-6,7-dihydro-1H-pyrazolo[4,3-c]pyridin-5(4H)-yl)isoxazolo[5,4-d]pyrimidine]	159
Cc1nc(N2CCc3c(c(C)nn3CC34CCC(N5CCCCC5)(CC3)CC4)C2)c2c(n1)c(C)nn2C [compound 38, 1,3,5-trimethyl-7-(3-methyl-1-((4-(piperidin-1-yl)bicyclo[2.2.2]octan-1-yl)methyl)-6,7-dihydro-1H-pyrazolo[4,3-c]pyridin-5(4H)-yl)-1H-pyrazolo[4,3-d]pyrimidine]	42
Cc1nc(N2CCc3c(c(C)nn3CC34CCC(N5CCCCC5)(CC3)CC4)C2)c2cnn(C)c2n1 [compound 39, 1,6-dimethyl-4-(3-methyl-1-((4-(piperidin-1-yl)bicyclo[2.2.2]octan-1-yl)methyl)-6,7-dihydro-1H-pyrazolo[4,3-c]pyridin-5(4H)-yl)-1H-pyrazolo[3,4-c]pyrimidine]	60
[2H]C([2H])([2H])N(C([2H])([2H])[2H])C12CCC(Cn3nc(C)c4c3CCN(c3nc(C)nc5c(C)nn(C)c35)C4)(CC1)CC2 [compound 40, 4-((3-methyl-5-(1,3,5-trimethyl-1H-pyrazolo[4,3-d]pyrimidin-7-yl)-4,5,6,7-tetrahydro-1H-pyrazolo[4,3-c]pyridin-1-yl)methyl)-N,N-bis(trideuteromethyl)bicyclo[2.2.2]octan-1-amine]	70
Cc1nn(CC23CCC(N)(CC2)CC3)c2c1CN(c1ccnc3[nH]ncc13)CC2 [compound 41, 4-((3-methyl-5-(1H-pyrazolo[3,4-b]pyridin-4-yl)-4,5,6,7-tetrahydro-1H-pyrazolo[4,3-c]pyridin-1-yl)methyl)bicyclo[2.2.2]octan-1-amine]	6
Cc1c2c(nn1CC13CCC(N)(CC1)CC3)CCN(c1ccnc3[nH]ncc13)C2 [compound 42, 4-((3-methyl-5-(1H-pyrazolo[3,4-b]pyridin-4-yl)-4,5,6,7-tetrahydro-2H-pyrazolo[4,3-c]pyridin-2-yl)methyl)bicyclo[2.2.2]octan-1-amine]	17
Cc1cc(N2CCc3c(c(C)nn3CC34CCC(N)(CC3)C4)C2)c2cnn(C)c2n1 [compound 44, 4-((5-(1,6-dimethyl-1H-pyrazolo[3,4-b]pyridin-4-yl)-3-methyl-4,5,6,7-tetrahydro-1H-pyrazolo[4,3-c]pyridin-1-yl)methyl)bicyclo[2.2.1]heptan-1-amine]	38
Cc1cc(N2CCc3c(c(C(F)(F)F)nn3CC34CCC(N)(CC3)CC4)C2)c2cnn(C)c2n1 [compound 45, 4-((5-(1,6-dimethyl-1H-pyrazolo[3,4-b]pyridin-4-yl)-3-(trifluoromethyl)-4,5,6,7-tetrahydro-1H-pyrazolo[4,3-c]pyridin-1-yl)methyl)bicyclo[2.2.2]octan-1-amine]	38
Cc1cc(N2CCc3c(c(C)nn3CC34CCC(NCC(=O)N5CCCCC5)(CC3)CC4)C2)c2cnn(C)c2n1 [compound 99, 2-((4-((5-(1,6-dimethyl-1H-pyrazolo[3,4-b]pyridin-4-yl)-3-methyl-4,5,6,7-tetrahydro-1H-pyrazolo[4,3-c]pyridin-1-yl)methyl)bicyclo[2.2.2]octan-1-yl)amino)-1-(piperidin-1-yl)ethanone]	40
Cc1cc(N2CCc3c(c(C)nn3CC34CCC(NC(=O)CN5CCCC5)(CC3)CC4)C2)c2cnn(C)c2n1 [compound 100, N-(4-((5-(1,6-dimethyl-1H-pyrazolo[3,4-b]pyridin-4-yl)-3-methyl-4,5,6,7-tetrahydro-1H-pyrazolo[4,3-c]pyridin-1-yl)methyl)bicyclo[2.2.2]octan-1-yl)-2-(pyrrolidin-1-yl)acetamide]	5
COCCNC12CCC(Cn3nc(C)c4c3CCN(c3cc(C)nc5c3cnn5C)C4)(CC1)OC2 [compound 102, 1-((5-(1,6-dimethyl-1H-pyrazolo[3,4-b]pyridin-4-yl)-3-methyl-4,5,6,7-tetrahydro-1H-pyrazolo[4,3-c]pyridin-1-yl)methyl)-N-(2-methoxyethyl)-2-oxabicyclo[2.2.2]octan-4-amine]	22
Cc1cc(N2CCc3c(c(C)nn3CC34CCC(NC(=O)CCN(C)C)(CC3)CC4)C2)c2cnn(C)c2n1 [compound 105, N-(4-((5-(1,6-dimethyl-1H-pyrazolo[3,4-b]pyridin-4-yl)-3-methyl-4,5,6,7-tetrahydro-1H-pyrazolo[4,3-c]pyridin-1-yl)methyl)bicyclo[2.2.2]octan-1-yl)-3-(dimethylamino)propanamide]	14
Cc1cc(N2CCc3c(c(C)nn3CC34CCC(NCC(=O)N5CCCC5)(CC3)CC4)C2)c2cnn(C)c2n1 [compound 106, 2-((4-((5-(1,6-dimethyl-1H-pyrazolo[3,4-b]pyridin-4-yl)-3-methyl-4,5,6,7-tetrahydro-1H-pyrazolo[4,3-c]pyridin-1-yl)methyl)bicyclo[2.2.2]octan-1-yl)amino)-1-(pyrrolidin-1-yl)ethanone]	63
Cc1cc(N2CCc3c(c(C)nn3CC34CCC(N5CCO[C@H](C)C5)(CC3)CC4)C2)c2cnn(C)c2n1 [compound 107, (R)-4-(4-((5-(1,6-dimethyl-1H-pyrazolo[3,4-b]pyridin-4-yl)-3-methyl-4,5,6,7-tetrahydro-1H-pyrazolo[4,3-c]pyridin-1-yl)methyl)bicyclo[2.2.2]octan-1-yl)-2-methylmorpholine]	11
Cc1cc(N2CCc3c(c(C)nn3CC34CCC(N5CCO[C@@H](C)C5)(CC3)CC4)C2)c2cnn(C)c2n1 [compound 109, (S)-4-(4-((5-(1,6-dimethyl-1H-pyrazolo[3,4-b]pyridin-4-yl)-3-methyl-4,5,6,7-tetrahydro-1H-pyrazolo[4,3-c]pyridin-1-yl)methyl)bicyclo[2.2.2]octan-1-yl)-2-methylmorpholine]	12
Cc1cc(N2CCc3c(c(C)nn3CC34CCC(N5C[C@@H](C)O[C@@H](C)C5)(CC3)CC4)C2)c2cnn(C)c2n1 [compound 110, (2S,6R)-4-(4-((5-(1,6-dimethyl-1H-pyrazolo[3,4-b]pyridin-4-yl)-3-methyl-4,5,6,7-tetrahydro-1H-pyrazolo[4,3-c]pyridin-1-yl)methyl)bicyclo[2.2.2]octan-1-yl)-2,6-dimethylmorpholine]	7
